Assay results reported in patent US6911460B2, “Antiviral agents and methods of treating viral infections” (Vion Pharmaceuticals, Inc., priority 2001, dated 2005).

How the values were obtained:
[1] = system: HSV-1 (KOS); experiment: Virus yield assay, Triapine plus acyclovir against HSV-1; assay type: cell-based, herpes simplex virus; conditions: for EC90: virus yield assay, 48 hr, combinations: ACV with fixed Triapine concentration
Experimental: (§1) To evaluate the antiviral activities of Triapine, acyclovir, and combination thereof, HeLa S3 cells are seeded in 25-cm^2 flasks and are used as host cells for virus infection (laboratory strains of virus HSV-1, HSV-2, wild type (Darby et al., (1982) Nature, 289, 81-3; Cheng, et al., Antimicrob. Agents Chemother. 18, 957-61, 1980). After a 1-hr adsorption period with virus at 5-10 plaque-forming units per cell, the monolayers are rinsed with phosphate-buffered saline, followed by the addition of 5 ml of growth medium containing various concentrations of drug. Concentrations of Triapine tested range from 0.1 to 1.0 micromolar where concentrations of acyclovir are from 1-50 micromolar. The cells are incubated at 37° C. for 48 hr and then are stored frozen at −70° C. until titration. The amounts of HSV contained in cells are determined with Vero cells using the methods described by Cheng et al. (Cheng, et al., Antimicrob. Agents Chemother. 18, 957-61, 1980).
(§2) The results of the above-test are presented in the following Table 1, below, which presents the antiviral activity of Triapine, at low, non-toxic clinically achievable concentrations of 0.3, 0.6 and 1.0 μM, in combination with acyclovir against HSV-1 (KOS) and HSV-2 (333) strains of herpes simplex virus in a virus yield assay. […] A greater than 4-fold decrease in the EC90 of ACV against HSV-2 is observed with 0.6 μM Triapine.

[2] = system: HSV-2 (333); experiment: Virus yield assay, Triapine plus acyclovir against HSV-2; assay type: cell-based, herpes simplex virus; conditions: for EC90: virus yield assay, 48 hr, combinations: ACV with fixed Triapine concentration
Experimental: as §1, §2

[3] = system: acyclovir-resistant HSV strains; conditions: in combination with acyclovir; cited from earlier work
[4] = system: strain IIIB of HIV; experiment: Anti-HIV activity of Triapine combinations in HIV-infected MT-2 cells (MTT, isobolograms); assay type: cell-based, HIV-1; conditions: FIG. 4
Experimental: MT-2 cells infected with strain IIIB of HIV (wildtype, 3TC resistant, or AZT resistant) are used for determining antiviral activities (Bridges et al., Biochem. Pharmacol. Vol. 51, 731-36, 1996). Cells are infected with virus at a multiplicity of infection of 0.1 TCID50/ml and added to wells containing serial 2-fold dilutions of drugs. MT-2 cells in RPMI 1640 medium supplemented with 10% dialyzed fetal bovine serum and 100 μg/mL Kanamnycin are infected with virus and immediately added to serial dilutions of the drugs. After 5 days, 20 μL of MTT dye (2.5 mg/mL in PBS) is added per well. At the end of the 4-h incubation period, 150 μL of acidified 2-propanol with 2% NP-40 nonionic detergent is added per well. After the crystals of dye are dissolved (usually 1-2 days), the plates are read on a microplate reader. Using this MTT-dye reduction method (Larder et al., (1990), Antimicrob. Agents Chemother. 34, 436-41), the percentage of protection can be calculated from the formula [(a−b)/(c−b)×100] in which a is the A595 of drug-treated virus-infected wells, b is the A595 of no-drug infected cells, and c is the A595 of the no-drug uninfected cells. The EC50 was calculated from linear log 10 plots of the percentage protection verses inhibition concentration.
Using the above-described experimental system, the ability of Triapine to potentiate the anti-HIV activity of the dideoxynucleoside analogs ddI (2′,3′-dideoxyinosine), D4T (2′,3′-dideoxydidehydrothymidine) and AZT (3′-azidothymidine) was examined in HIV-infected MT-2 cells (as described above).

[5] = set-up: dose or concentration left out as unconfirmed; conditions: cancer patients, 96-hour infusion; cited from earlier work
[6] = Solubility in aqueous solution
[7] = system: HIV-infected cells; conditions: combined with 2′,3′-dideoxyinosine (DDI); cited from earlier work

SMILES: Nc1nc2c(ncn2COCCO)c(=O)[nH]1 [ACV, acyclovir]
- decrease of the EC90 of ACV ([1]; HSV-1, in the presence of 0.3 μM Triapine): 10 fold
- decrease of the EC90 of ACV ([1]; HSV-1, in the presence of 0.6 μM Triapine): greater than 24 fold
- EC90 ([1]; Human alphaherpesvirus 1): 29.3 µM
- decrease in the EC90 of ACV ([2]; HSV-2, with 0.6 μM Triapine): greater than 4 fold
- EC90 ([2]; Human alphaherpesvirus 2): 36.5 µM

SMILES: CC[C@@H](NC(=O)[C@@H](CC(=O)[C@@H](CC(=O)[C@@H](NC(=O)[C@H](C(C)C)N(C)C(=O)[C@H](C)CC1CCCCC1)C(C)(C)C)CC(=O)C(C)(C)C)C1(C(=O)O)CCCC1)C(C)(C)C [BILD1633 SE]
- activity against acyclovir-resistant HSV strains [3]: had activity

SMILES: NC(=S)NN=Cc1ncccc1N [Triapine, 3-aminopyridine-2-carboxyaldehyde thiosemicarbazone]
- EC90 [1]: > 1 µM
- EC90 [2]: > 1 µM
- anti-HIV interaction (isobologram) ([4]; combined with AZT): additive
- anti-HIV interaction (isobologram) ([4]; combined with D4T): synergistic
- anti-HIV interaction (isobologram) ([4]; combined with ddI): synergistic
- concentration of Triapine reached [5]: 1000 nM
- solubility in aqueous solution [6]: less than 0.1 mg/ml

SMILES: NC(=O)NO [hydroxyurea]
- effects against HIV-infected cells in combination [7]: synergistic effects
